PMC7313430, “Heme-Dependent ER Stress Apoptosis: A Mechanism for the Selective Toxicity of the Dihydroartemisinin, NSC735847, in Colorectal Cancer Cells” (Frontiers in Oncology, 2020)

Legend:
[1] = test system: caspase 3/7 activity in FHC cells; assay: Caspase-Glo 3/7 activity assay in FHC; format: cell-based, human; conditions: 16 h, 1.25-10 μM
Protocol: (§1) The cells were plated in white-walled 96-well-plates and then they were cultured at 37°C for 48 h. Serum-free culture medium containing the appropriate concentration of different agents was added to the cells for the indicated period of time. Caspase-Glo 3/7 reagent (Promega, Madison, WI) was added to each well and luminescence was detected as directed by the manufacturer. The Caspase-Glo 3/7 kit measures the activity of the executioner caspases 3 and 7 using the luminogenic substrate (Z-DEVD-aminoluciferin) as substrate.

[2] = test system: caspase 3/7 activity in HCT-116 cells; assay: Caspase-Glo 3/7 activity assay in HCT116; format: cell-based, human; conditions: 16 h, 1.25-10 μM
Protocol: as §1

[3] = test system: FHC cells; assay: TUNEL assay in FHC; format: cell-based, human; conditions: 5 or 10 μM, 16 h
Protocol: (§2) HT29, HCT116, and FHC cells were cultured in chamber slides and treated with 5 μM NSC735847, 10 μM NSC735847, or vehicle (0.1% DMSO). The cells were then washed with PBS and fixed in 4% paraformaldehyde before detection of double stranded DNA breaks that are characteristic of apoptosis. Terminal deoxynucleotidyl transferase dUTP nick end labeling (TUNEL) assays were performed as described by the manufacturer (in situ Cell Death Detection Kit; Roche; Indianapolis, IN). Briefly, fixed cells were incubated in permeabilization solution (0.1% Triton X-100 in 0.1% sodium citrate) for 2 min on ice. The slides were rinsed twice with PBS, 50 μL TUNEL reaction mixture was added, and then the samples were incubated for 1 h at 37°C in the dark. The slides were overlayed with antifade mounting medium containing DAPI and then visualized using a Zeiss LSM 700 confocal microscope system (Carl Zeiss Microscopy, LLC, White Plains, NY).

[4] = test system: intracellular iron in HT29 cells; assay: Intracellular iron measurement (QuantiChrom kit); format: cell-based, human; conditions: HT29, 10 μM, 4, 8 and 16 h
Protocol: HT29 cells were plated in 100 mm tissue culture plates for 48 h and then the cells were treated as indicated in the text. The cells were washed twice with PBS and then 100 μl triton lysis buffer (without EDTA) was added. The intracellular iron concentrations were determined using the QuantiChrom iron assay kit (BioAssay Systems; #ab83366) following the manufacturer's instructions. Briefly, iron standards of different concentrations were prepared by diluting the iron standard provided with the kit with distilled water. The diluted standards (50 μL) and sample cell lysates (50 μL) were transferred into a clear flat bottom 96-well-plate. Working reagent was prepared by mixing 20 volumes of reagent A, 1 volume reagent B and 1 volume reagent C provided with the kit. The working reagent (200 μL) was then added to the standard and sample wells. After mixing, the plate was incubated 40 min at room temperature and then the absorbance was measured at 590 nm. The iron concentration in each sample was calculated as described in the kit protocol.

[5] = test system: caspase 3/7 activity in HT29 cells; assay: Caspase-Glo 3/7 activity assay in HT29; format: cell-based, human; conditions: 16 h, 1.25-10 μM
Protocol: as §1

[6] = test system: HT29 cells; assay: TUNEL assay in HT29; format: cell-based, human; conditions: 5 or 10 μM, 16 h
Protocol: as §2

[7] = test system: HCT116 cells; assay: TUNEL assay in HCT116; format: cell-based, human; conditions: 5 or 10 μM, 16 h
Protocol: as §2

[8] = test system: FHC cells; assay: MTS cell viability assay, non-tumorigenic colon cells; format: cell-based; conditions: Homo sapiens, 24 h treatment
Protocol: The human colon cancer cell lines HT29 and HCT116 were cultured in McCoy's 5A medium (Sigma Aldrich, St. Louis, MO) containing 10% heat-inactivated fetal bovine serum (FBS), penicillin (100 units/ml), and streptomycin (100 μg/ml). The non-tumorigenic colon cell line, FHC, was cultured in DMEM: F12 (1:1) medium supplemented with 10% heat inactivated FBS, 25 mM HEPES (Thermo Fisher Scientific Inc., IL), 10 ng/ml cholera toxin (Sigma Aldrich, St. Louis, MO), 0.005 mg/ml insulin (Thermo Fisher Scientific Inc., IL), 0.005 mg/ml, transferrin (Sigma Aldrich, St. Louis, MO), 100 ng/ml hydrocortisone (Sigma Aldrich, St. Louis, MO), 20 ng/mL human recombinant epidermal growth factor (Thermo Fisher Scientific Inc., IL), 100 units/ml penicillin, and 100 μg/ml streptomycin.
Cells were cultured in 96-well-plates for 48 h before treatment. Serum-free media containing different agents was added to the cells at the concentration and time period described in the figure legend. MTS reagent (Promega, Madison, WI) was then added to each well and the absorbance was measured at 495 nm as directed by the manufacturer. In the presence of MTS reagent, the absorbance reading is proportional to the number of viable cells. The half-maximal inhibitory concentration (IC50) of the tested compounds is the concentration that reduces the viability of cells by 50%. IC50 was calculated after 24 h of treatment ([30], [31]) as described previously ([32]–[34]) from dose-response curves (log drug concentration vs. percentage viability from untreated cells) generated by non-linear regression analysis with GraphPad Prism 5 software (GraphPad Software, San Diego, California).

[9] = test system: ferritin H mRNA in HT29 cells; assay: Ferritin mRNA qRT-PCR; format: cell-based, human; conditions: HT29, 10 μM, 4, 8 and 16 h
Protocol: Total RNA was extracted from HT29 cells by utilizing TRI reagent (Sigma Aldrich, St. Louis, MO, USA) and then it was purified with the Direct-zol RNA MiniPrep Kit (Zymo Research, Irvine, CA, USA). cDNA was synthesized from purified RNA by using the iScript cDNA Synthesis Kit (Bio-Rad laboratories, Hercules, CA, USA). qRT-PCR was performed by using the iTaq Universal SYBR Green Supermix (Bio-Rad laboratories, Hercules, CA, USA) with the BioRad CFX96 thermocycler (Bio-Rad laboratories, Hercules, CA, USA). The specific primer pair sequences were 5′-[…]-3′ and 5′-[…]-3′ for β-actin; and 5′-[…]-3′ and 5′-[…]-3′ for ferritin H (heavy-chain). Cycle threshold values were normalized to the internal beta-actin control. The ratio of fold change was calculated using the Pfaffl method ([37]).

Compound: CC1CCC2C(C)C(OCC(COC3OC4OC5(C)CCC6C(C)CCC(C3C)C46OO5)=NO)OC3OC4(C)CCC1C32OO4 (stereo not drawn) [compound (3)]
- caspase 3/7 activity in FHC [1]: not in FHC cells
- caspase 3/7 activity in HCT-116 [2]: significantly increased
- TUNEL positive cells in FHC [3]: absent
- cellular free iron [4]: time-dependent increase in cellular free iron
- caspase 3/7 activity in HT-29 [5]: significantly increased
- TUNEL positive cells in HT29 [6]: increased the quantity of TUNEL positive cells
- TUNEL positive cells in HCT-116 [7]: increased the quantity of TUNEL positive cells
- IC50 [8]: > 25 µM
- ferritin mRNA expression [9]: upregulated the expression of ferritin mRNA
